Consider 17 molecules from patent US11174250B2, “Substituted carboxamides as inhibitors of WDR5 protein-protein binding” (PROPELLON THERAPEUTICS INC., priority 2016, dated 2021).

This experiment deals with WDR5 protein (Homo sapiens (Human), UniProt P61964). In words: Surface Plasmon Resonance (SPR) assay. The experiment is classed as binding. Conditions: SPR; for residence time: τ=1/koff, read-out: Residence Time (t, min).
The mark [1] stands for this setting: Table 1, read-out: WDR5 binding affinity (KD).
The mark [2] stands for this setting: Table 2, read-out: WDR5 binding affinity SPR (KD).

Where two headings read alike, the source gives them in different places.

Protocol: Exemplary compounds of the application were dissolved in 100% DMSO at 10 mM, assayed fresh, and then stored at −20° C. for repeat studies and other experiments. Full length WDR5 with an N-terminal His tag and C-terminal AviTag (Avidity Inc.) was expressed in E. coli with coexpression of BirA to biotin label the protein in vivo. Purification was via Ni-NTA. The purified WDR5 protein has a molecular weight of 41976 Da.
SPR studies were performed using a Biacore™ T200 instrument (GE Health Sciences Inc.). Biotinylated WDR5 protein (approximately 3000RU) was stably captured to streptavidin coupled SA chips according to the manufacture's protocol (GE Health Sciences Inc.). The running buffer used was HBS-EP (20 mM Hepes pH 7.4, 150 mM NaCl, 3 mM EDTA, 0.05% P-20) plus 5% DMSO with a flow rate of 40p1/min. For SPR analysis, 5 different concentrations of each exemplary compound of the application were sprayed into 96 or 384 well plates using an HP D300 digital dispenser. […] Curve fitting and KD calculations were performed with the Biacore T200 Evaluation software (GE Health Sciences Inc).

On to `C[C@@H]1CN(c2ccc(-c3cc(CNC4CCCCC4)c(F)cc3F)cc2NC(=O)c2c[nH]c(=O)cc2C(F)(F)F)C[C@H](C)N1C` [Example 79, N-(5′-((cyclohexylamino)methyl)-2′,4′-difluoro-4-((3S,5R)-3,4,5-trimethylpiperazin-1-yl)-[1,1′-biphenyl]-3-yl)-6-oxo-4-(trifluoromethyl)-1,6-dihydropyridine-3-carboxamide], for which the residence time was determined as 16.4 min. Moreover, the Kd under setting [1] was 2.5 nM. Further, the dissociation constant (Kd) under setting [2] came to 2.5 nM.

On to `C[C@@H]1CN(c2ccc(-c3ccc(F)c(CNC4CCCCC4)c3F)cc2NC(=O)c2c[nH]c(=O)cc2C(F)(F)F)C[C@H](C)N1C` [Example 83, N-(3′-((cyclohexylamino)methyl)-2′,4′-difluoro-4-((3S,5R)-3,4,5-trimethylpiperazin-1-yl)-[1,1′-biphenyl]-3-yl)-6-oxo-4-(trifluoromethyl)-1,6-dihydropyridine-3-carboxamide], for which the residence time came to 3.24 min. Also, the equilibrium dissociation constant (Kd) under setting [1] came out at 10 nM. Further, the Kd under setting [2] came to 10.3 nM.

Take `CN1CCN(c2ncc(-c3cc(CNC4CCCCC4)ccc3F)cc2NC(=O)c2c[nH]c(=O)cc2C(F)(F)F)CC1` [Example 85, N-(5-(5-((cyclohexylamino)methyl)-2-fluorophenyl)-2-(4-methylpiperazin-1-yl)pyridin-3-yl)-6-oxo-4-(trifluoromethyl)-1,6-dihydropyridine-3-carboxamide]: the residence time is 0.78 min. Also, the Kd under setting [1] is 15 nM. Besides, under setting [2], the dissociation constant Kd was determined as 14.8 nM.

For the molecule `CN1CCN(c2ccc(-c3cc(CN4CCOCC4)ccc3Cl)cc2NC(=O)c2c[nH]c(=O)cc2C(F)(F)F)CC1` [Example 86, N-(2′-chloro-4-(4-methylpiperazin-1-yl)-5′-(morpholinomethyl)-[1,1′-biphenyl]-3-yl)-6-oxo-4-(trifluoromethyl)-1,6-dihydropyridine-3-carboxamide], the Kd reads like this: under setting [1], 35 nM; under setting [2], 34.5 nM.

In the case of `CN1CCCN(c2ccc(-c3cc(CN4CCOCC4)ccc3F)cc2NC(=O)c2c[nH]c(=O)cc2C(F)(F)F)CC1` [Example 88, N-(2′-fluoro-4-(4-methyl-1,4-diazepan-1-yl)-5′-(morpholinomethyl)-[1,1′-biphenyl]-3-yl)-6-oxo-4-(trifluoromethyl)-1,6-dihydropyridine-3-carboxamide], the residence time amounted to 1.71 min. In addition, the Kd under setting [1] was 18 nM. Besides, the dissociation constant Kd under setting [2] is 18 nM.

Take `CN1CCCN(c2ccc(-c3cc(CN4CCOCC4)ccc3F)cc2NC(=O)c2cn(C)c(=O)cc2C(F)(F)F)CC1` [Example 89, N-(2′-fluoro-4-(4-methyl-1,4-diazepan-1-yl)-5′-(morpholinomethyl)-[1,1′-biphenyl]-3-yl)-1-methyl-6-oxo-4-(trifluoromethyl)-1,6-dihydropyridine-3-carboxamide]: the residence time was 0.07 min. Under setting [1], the Kd stood at 235 nM. The Kd under setting [2] worked out at 235 nM.

For the molecule `Cc1cc(C(=O)Nc2cc(-c3cc(CN4CCOCC4)ccc3F)ccc2N2CCC(N(C)C)C2)cc(C)c1F` (stereo not drawn) [Example 91, N-(4-(3-(dimethylamino)pyrrolidin-1-yl)-2′-fluoro-5′-(morpholinomethyl)-[1,1′-biphenyl]-3-yl)-4-fluoro-3,5-dimethylbenzamide], the Kd reads like this: under setting [1], 316 nM; under setting [2], 316 nM.

For `Cc1cc(C(=O)Nc2cc(-c3cc(CN4CCOCC4)ccc3F)ccc2N2CCCN(C)CC2)cc(C)c1F` [Example 92, 4-fluoro-N-(2′-fluoro-4-(4-methyl-1,4-diazepan-1-yl)-5′-(morpholinomethyl)-[1,1′-biphenyl]-3-yl)-3,5-dimethylbenzamide], the Kd reads like this: under setting [1], 394 nM; under setting [2], 394 nM.

Consider `Cc1cc(C(=O)Nc2cc(-c3cc(CN4CCOCC4)ccc3F)ccc2N2CC3CN(C)CC3C2)cc(C)c1F` (stereo not drawn) [Example 94, 4-fluoro-N-(2′-fluoro-4-(5-methylhexahydropyrrolo[3,4-c]pyrrol-2(1H)-yl)-5′-(morpholinomethyl)-[1,1′-biphenyl]-3-yl)-3,5-dimethylbenzamide], for which the dissociation constant Kd is, setting by setting: under setting [1], above 200 nM; under setting [2], above 200 nM.

`Cc1cc(C(=O)Nc2cc(-c3cc(CN4CCOCC4)ccc3F)ccc2N2CCN(CC(F)(F)F)CC2)cc(C)c1F` [Example 95, 4-fluoro-N-(2′-fluoro-5′-(morpholinomethyl)-4-(4-(2,2,2-trifluoroethyl)piperazin-1-yl)-[,1′-biphenyl]-3-yl)-3,5-dimethylbenzamide]: the equilibrium dissociation constant (Kd) was above 200 nM under setting [1] and above 200 nM under setting [2].

Regarding `O=C(Nc1cc(-c2cc(CN3CCOCC3)ccc2F)ccc1N1CCN(CC(F)(F)F)CC1)c1c[nH]c(=O)cc1C(F)(F)F` [Example 97, N-(2′-fluoro-5′-(morpholinomethyl)-4-(4-(2,2,2-trifluoroethyl)piperazin-1-yl)-[,1′-biphenyl]-3-yl)-6-oxo-4-(trifluoromethyl)-1,6-dihydropyridine-3-carboxamide], the equilibrium dissociation constant (Kd) was above 200 nM under setting [1] and above 200 nM under setting [2].

Turning to `CN1CC2CN(c3ccc(-c4cc(CN5CCOCC5)ccc4F)cc3NC(=O)c3c[nH]c(=O)cc3C(F)(F)F)CC2C1` (stereo not drawn) [Example 100, N-(2′-fluoro-4-(5-methylhexahydropyrrolo[3,4-c]pyrrol-2(1H)-yl)-5′-(morpholinomethyl)-[1,1′-biphenyl]-3-yl)-6-oxo-4-(trifluoromethyl)-1,6-dihydropyridine-3-carboxamide], the dissociation constant (Kd) is, setting by setting: under setting [1], 5930 nM; under setting [2], 5930 nM.

With `CN(C)C1CCN(c2ccc(-c3cc(CN4CCOCC4)ccc3F)cc2NC(=O)c2cn(C)c(=O)cc2C(F)(F)F)C1` (stereo not drawn) [Example 101, N-(4-(3-(dimethylamino)pyrrolidin-1-yl)-2′-fluoro-5′-(morpholinomethyl)-[1,1′-biphenyl]-3-yl)-1-methyl-6-oxo-4-(trifluoromethyl)-1,6-dihydropyridine-3-carboxamide], the Kd was determined as 2270 nM under setting [1] and 2270 nM under setting [2].

For the molecule `CN1CCN(c2ccc(-c3cc(CN4CCOCC4)ccc3F)cc2NC(=O)c2cc(F)cc3[nH]cnc23)CC1` [Example 102, 6-fluoro-N-(2′-fluoro-4-(4-methylpiperazin-1-yl)-5′-(morpholinomethyl)-[1,1′-biphenyl]-3-yl)-1H-benzo[d]imidazole-4-carboxamide], the dissociation constant (Kd) runs as follows: under setting [1], above 200 nM; under setting [2], above 200 nM.

Take `CN1CCN(c2ccc(-c3cc(CN4CCOCC4)ccc3F)cc2NC(=O)c2nc3ccccc3[nH]2)CC1` [Example 103, N-(2′-fluoro-4-(4-methylpiperazin-1-yl)-5′-(morpholinomethyl)-[1,1′-biphenyl]-3-yl)-1H-benzo[d]imidazole-2-carboxamide]: the Kd reads like this: under setting [1], above 200 nM; under setting [2], above 200 nM.

Turning to `C[C@H]1CN(C)CCN1c1ccc(-c2cc(CN3CCOCC3)ccc2F)cc1NC(=O)c1c[nH]c(=O)cc1C(F)(F)F` [Example 104, (S)—N-(4-(2,4-dimethylpiperazin-1-yl)-2′-fluoro-5′-(morpholinomethyl)-[1,1′-biphenyl]-3-yl)-6-oxo-4-(trifluoromethyl)-1,6-dihydropyridine-3-carboxamide], the Kd was 4000 nM under setting [1] and 4000 nM under setting [2].

In the case of `CN1CCN(c2ccc(-c3cc(CN4CCOCC4)ccc3F)cc2NC(=O)c2ccc(=O)[nH]c2)CC1` [Example 105, N-(2′-fluoro-4-(4-methylpiperazin-1-yl)-5′-(morpholinomethyl)-[1,1′-biphenyl]-3-yl)-6-oxo-1,6-dihydropyridine-3-carboxamide], the Kd by setting is: under setting [1], 1950 nM; under setting [2], 1950 nM.

In general, Kd refers to a measure of binding affinity in units of concentration. In general, residence time refers to the mean lifetime of the complex, commonly the reciprocal of the off-rate.
